Data taken from paper doi:10.1101/2023.03.24.534094v2 (biorxiv, 2023).
Read-outs that look alike come from different tables or passages of the source.

How the values were obtained:
Assay in all cases: biochemical
[1] = target: BIKE (Homo sapiens, UniProt Q9NSY1)
[2] = target: CaMK2d (Homo sapiens, UniProt Q13557)
[3] = target: T1, EphB1 (Homo sapiens, UniProt P54762)
T1 sequence (P54762 1-984): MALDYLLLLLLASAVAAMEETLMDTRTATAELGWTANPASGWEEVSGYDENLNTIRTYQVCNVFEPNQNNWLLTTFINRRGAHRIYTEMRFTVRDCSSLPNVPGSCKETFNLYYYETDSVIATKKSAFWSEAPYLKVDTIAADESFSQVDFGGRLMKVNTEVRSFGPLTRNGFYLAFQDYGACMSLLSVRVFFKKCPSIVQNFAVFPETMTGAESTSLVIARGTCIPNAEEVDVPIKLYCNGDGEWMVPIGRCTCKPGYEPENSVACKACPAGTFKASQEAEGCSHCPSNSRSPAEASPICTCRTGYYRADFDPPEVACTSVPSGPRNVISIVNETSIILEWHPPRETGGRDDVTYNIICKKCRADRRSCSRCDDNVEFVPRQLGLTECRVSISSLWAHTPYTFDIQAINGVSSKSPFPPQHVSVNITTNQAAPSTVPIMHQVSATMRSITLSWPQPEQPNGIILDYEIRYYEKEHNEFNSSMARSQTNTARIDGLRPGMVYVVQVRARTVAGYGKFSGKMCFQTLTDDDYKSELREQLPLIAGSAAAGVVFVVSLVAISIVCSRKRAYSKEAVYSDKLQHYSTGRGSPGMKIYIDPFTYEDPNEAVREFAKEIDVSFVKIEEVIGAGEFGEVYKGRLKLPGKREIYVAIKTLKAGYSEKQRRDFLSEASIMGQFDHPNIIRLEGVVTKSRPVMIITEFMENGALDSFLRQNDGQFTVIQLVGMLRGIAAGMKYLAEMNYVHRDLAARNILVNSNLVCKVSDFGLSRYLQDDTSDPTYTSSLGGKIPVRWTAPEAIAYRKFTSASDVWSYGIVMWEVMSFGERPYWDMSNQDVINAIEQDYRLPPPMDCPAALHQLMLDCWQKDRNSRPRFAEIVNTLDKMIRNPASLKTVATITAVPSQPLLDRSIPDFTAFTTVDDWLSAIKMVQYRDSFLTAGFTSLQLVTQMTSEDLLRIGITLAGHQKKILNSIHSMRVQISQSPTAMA

[4] = target: T2, GAK (Homo sapiens, UniProt O14976)
T2 sequence (O14976 1-1311): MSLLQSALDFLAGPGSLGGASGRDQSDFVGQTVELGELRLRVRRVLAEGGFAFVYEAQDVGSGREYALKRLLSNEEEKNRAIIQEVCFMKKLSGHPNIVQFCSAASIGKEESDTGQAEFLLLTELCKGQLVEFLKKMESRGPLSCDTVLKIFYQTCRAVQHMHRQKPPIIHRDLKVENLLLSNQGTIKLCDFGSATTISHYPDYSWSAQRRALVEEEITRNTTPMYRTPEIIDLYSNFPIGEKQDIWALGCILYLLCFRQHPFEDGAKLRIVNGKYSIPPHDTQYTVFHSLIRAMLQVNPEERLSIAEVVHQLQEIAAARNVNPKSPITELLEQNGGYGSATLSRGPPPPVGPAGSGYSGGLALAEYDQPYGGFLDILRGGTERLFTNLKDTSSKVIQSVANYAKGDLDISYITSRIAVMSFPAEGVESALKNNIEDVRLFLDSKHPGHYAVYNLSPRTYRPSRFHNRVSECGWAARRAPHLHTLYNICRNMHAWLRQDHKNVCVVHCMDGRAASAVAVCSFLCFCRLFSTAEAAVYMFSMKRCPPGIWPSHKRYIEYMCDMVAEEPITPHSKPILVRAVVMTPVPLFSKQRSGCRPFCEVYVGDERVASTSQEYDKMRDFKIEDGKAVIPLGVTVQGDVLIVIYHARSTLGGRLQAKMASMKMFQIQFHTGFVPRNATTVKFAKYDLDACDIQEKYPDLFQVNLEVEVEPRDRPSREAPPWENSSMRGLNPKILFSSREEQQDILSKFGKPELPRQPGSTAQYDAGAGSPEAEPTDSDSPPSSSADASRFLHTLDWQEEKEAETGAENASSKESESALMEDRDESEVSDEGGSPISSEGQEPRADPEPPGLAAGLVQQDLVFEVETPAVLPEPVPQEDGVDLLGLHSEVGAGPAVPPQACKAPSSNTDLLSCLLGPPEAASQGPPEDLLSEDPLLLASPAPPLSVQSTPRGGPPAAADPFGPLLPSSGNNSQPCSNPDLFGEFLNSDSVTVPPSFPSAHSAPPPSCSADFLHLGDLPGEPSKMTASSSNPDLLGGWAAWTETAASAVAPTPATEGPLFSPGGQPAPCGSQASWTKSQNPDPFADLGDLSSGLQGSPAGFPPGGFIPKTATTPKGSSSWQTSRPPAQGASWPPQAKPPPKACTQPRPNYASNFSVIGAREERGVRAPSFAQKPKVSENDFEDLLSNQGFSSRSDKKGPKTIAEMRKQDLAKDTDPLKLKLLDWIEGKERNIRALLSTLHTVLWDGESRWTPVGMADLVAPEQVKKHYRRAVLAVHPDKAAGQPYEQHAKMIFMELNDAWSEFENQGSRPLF

[5] = target: LOK (Homo sapiens, UniProt O94804)
[6] = target: NDR2 (Homo sapiens, UniProt Q9Y2H1)
[7] = target: PAK4 (Homo sapiens, UniProt O96013)
[8] = target: RSK1b (Homo sapiens, UniProt Q15418)
Chain of RSK1b (Q15418 whole entry): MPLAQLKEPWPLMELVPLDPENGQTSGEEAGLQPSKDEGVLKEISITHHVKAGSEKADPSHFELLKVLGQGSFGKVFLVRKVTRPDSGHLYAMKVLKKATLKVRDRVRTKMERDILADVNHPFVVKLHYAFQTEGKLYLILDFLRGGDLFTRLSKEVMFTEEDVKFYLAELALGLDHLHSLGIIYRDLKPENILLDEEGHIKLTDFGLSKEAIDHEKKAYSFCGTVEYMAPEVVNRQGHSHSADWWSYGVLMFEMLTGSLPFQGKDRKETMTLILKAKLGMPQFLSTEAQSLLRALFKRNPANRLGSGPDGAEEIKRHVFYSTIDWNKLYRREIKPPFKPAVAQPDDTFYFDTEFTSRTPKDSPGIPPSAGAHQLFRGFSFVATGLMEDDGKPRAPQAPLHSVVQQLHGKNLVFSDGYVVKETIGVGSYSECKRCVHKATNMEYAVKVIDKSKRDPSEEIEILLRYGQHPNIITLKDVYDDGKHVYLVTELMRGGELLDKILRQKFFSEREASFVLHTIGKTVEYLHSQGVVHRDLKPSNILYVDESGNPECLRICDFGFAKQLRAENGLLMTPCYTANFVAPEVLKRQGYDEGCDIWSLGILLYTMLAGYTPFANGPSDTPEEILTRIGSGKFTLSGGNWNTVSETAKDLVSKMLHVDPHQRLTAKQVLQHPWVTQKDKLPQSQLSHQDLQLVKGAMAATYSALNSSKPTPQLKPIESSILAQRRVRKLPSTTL

Chain of BIKE (Q9NSY1 whole entry): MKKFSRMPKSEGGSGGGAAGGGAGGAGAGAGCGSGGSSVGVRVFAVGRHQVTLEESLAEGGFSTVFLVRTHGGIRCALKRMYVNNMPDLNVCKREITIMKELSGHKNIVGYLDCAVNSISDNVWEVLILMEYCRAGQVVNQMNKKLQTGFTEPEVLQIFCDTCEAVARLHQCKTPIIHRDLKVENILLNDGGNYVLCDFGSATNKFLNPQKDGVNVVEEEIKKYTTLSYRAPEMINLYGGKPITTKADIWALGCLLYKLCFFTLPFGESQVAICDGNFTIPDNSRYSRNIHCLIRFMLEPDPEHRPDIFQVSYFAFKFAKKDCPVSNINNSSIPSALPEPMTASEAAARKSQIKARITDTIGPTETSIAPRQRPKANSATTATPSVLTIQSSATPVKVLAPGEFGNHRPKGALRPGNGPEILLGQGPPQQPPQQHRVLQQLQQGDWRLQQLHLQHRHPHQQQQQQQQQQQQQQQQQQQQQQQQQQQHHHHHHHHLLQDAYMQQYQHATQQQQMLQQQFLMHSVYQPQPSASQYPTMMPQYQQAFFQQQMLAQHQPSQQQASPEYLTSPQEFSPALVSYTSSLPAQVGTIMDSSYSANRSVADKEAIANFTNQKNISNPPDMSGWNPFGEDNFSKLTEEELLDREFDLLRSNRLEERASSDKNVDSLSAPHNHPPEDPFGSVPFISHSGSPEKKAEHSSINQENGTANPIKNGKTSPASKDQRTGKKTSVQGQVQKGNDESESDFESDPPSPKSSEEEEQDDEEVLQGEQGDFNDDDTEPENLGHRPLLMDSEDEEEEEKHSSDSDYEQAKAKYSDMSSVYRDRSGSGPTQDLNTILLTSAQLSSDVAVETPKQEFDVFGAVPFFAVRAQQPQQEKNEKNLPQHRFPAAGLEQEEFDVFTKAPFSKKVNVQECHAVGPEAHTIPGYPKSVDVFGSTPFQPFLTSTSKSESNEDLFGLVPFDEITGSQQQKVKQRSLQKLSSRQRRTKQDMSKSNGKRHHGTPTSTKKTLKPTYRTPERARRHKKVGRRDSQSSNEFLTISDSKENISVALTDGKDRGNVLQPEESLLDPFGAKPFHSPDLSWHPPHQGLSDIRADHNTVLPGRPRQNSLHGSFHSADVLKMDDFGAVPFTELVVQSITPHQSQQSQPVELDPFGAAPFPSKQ
Chain of NDR2 (Q9Y2H1 whole entry): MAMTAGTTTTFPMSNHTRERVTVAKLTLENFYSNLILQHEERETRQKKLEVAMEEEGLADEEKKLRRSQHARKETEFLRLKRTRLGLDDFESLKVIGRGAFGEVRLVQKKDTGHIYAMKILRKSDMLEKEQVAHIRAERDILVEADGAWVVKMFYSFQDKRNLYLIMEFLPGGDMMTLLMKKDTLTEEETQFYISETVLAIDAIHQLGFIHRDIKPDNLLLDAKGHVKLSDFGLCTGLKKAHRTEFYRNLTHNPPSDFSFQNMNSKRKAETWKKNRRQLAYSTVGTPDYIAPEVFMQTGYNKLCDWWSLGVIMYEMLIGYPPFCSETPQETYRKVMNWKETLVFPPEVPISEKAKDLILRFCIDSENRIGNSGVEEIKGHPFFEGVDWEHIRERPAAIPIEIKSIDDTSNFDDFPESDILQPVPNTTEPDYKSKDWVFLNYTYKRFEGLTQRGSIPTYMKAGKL
Chain of PAK4 (O96013 whole entry): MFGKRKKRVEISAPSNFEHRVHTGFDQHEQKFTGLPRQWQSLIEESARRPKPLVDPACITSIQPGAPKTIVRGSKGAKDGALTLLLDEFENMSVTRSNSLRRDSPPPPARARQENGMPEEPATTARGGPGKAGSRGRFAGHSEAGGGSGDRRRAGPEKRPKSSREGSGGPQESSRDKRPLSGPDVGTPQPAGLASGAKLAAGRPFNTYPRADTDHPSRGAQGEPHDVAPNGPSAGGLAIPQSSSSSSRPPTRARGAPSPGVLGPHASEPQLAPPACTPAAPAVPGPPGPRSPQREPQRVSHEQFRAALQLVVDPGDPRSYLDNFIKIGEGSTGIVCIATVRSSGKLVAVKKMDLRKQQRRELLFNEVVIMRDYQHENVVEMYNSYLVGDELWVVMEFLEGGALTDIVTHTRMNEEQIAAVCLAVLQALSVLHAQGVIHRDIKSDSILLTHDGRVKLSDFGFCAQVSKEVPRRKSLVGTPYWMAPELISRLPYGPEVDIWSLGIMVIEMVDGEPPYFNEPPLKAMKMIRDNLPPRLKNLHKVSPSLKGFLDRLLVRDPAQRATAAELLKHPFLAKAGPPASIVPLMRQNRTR
Chain of CaMK2d (Q13557 whole entry): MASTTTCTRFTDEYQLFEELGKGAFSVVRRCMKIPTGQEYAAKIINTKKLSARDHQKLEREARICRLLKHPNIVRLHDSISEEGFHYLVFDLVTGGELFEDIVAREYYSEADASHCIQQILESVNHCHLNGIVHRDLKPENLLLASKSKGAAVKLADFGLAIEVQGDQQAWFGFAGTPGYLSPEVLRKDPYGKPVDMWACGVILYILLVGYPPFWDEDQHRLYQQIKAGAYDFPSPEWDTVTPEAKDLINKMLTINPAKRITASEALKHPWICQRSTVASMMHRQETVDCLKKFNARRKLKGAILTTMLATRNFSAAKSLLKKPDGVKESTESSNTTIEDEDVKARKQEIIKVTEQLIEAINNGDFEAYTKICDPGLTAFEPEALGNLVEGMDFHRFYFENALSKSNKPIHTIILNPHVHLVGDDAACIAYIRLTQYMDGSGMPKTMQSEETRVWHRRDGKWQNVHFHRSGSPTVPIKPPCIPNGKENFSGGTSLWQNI
Chain of LOK (O94804 whole entry): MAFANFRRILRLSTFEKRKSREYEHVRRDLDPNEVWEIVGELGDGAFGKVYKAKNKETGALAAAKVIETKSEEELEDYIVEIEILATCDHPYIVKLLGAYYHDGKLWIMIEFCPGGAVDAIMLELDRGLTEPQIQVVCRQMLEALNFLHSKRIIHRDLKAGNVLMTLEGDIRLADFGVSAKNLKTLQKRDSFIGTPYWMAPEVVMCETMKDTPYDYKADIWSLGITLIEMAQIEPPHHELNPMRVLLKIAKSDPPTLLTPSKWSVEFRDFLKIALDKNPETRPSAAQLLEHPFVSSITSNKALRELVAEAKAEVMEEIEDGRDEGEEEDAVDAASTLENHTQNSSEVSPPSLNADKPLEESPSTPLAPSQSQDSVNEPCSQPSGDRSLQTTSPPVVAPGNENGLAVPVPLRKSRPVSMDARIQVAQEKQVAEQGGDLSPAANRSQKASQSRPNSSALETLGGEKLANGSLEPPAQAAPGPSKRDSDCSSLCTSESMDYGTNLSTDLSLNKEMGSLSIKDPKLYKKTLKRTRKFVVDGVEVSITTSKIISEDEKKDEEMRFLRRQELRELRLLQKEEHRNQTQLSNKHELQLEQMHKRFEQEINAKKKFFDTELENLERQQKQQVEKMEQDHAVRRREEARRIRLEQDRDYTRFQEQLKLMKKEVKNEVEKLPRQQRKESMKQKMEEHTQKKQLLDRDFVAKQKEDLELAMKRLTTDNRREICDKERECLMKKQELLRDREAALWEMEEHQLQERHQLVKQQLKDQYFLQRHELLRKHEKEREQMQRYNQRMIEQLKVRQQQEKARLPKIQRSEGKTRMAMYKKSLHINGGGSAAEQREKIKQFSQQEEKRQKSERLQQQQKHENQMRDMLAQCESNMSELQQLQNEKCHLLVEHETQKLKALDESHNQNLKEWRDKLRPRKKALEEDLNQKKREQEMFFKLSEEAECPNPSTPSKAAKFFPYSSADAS

## CNc1ncc2cc(-c3cc(Br)ccc3Cl)c(=O)n(CCCCN)c2n1 [compound 6, 8-(4-Aminobutyl)-6-(5-bromo-2-chlorophenyl)-2-(methylamino)pyrido[2,3-d]pyrimidin-7(8H)-one]
[1]; read-out: dTm 6
  ΔTm at 10 µM: 0.6 °C
[2]; read-out: dTm 6
  ΔTm at 10 µM: 0 °C
[3]; read-out: dTm 6
  ΔTm at 10 µM: 4.7 °C
[4]; read-out: dTm 6
  ΔTm at 10 µM: 4.1 °C
[5]; read-out: dTm 6
  ΔTm at 10 µM: 2.4 °C
[6]; read-out: dTm 6
  ΔTm at 10 µM: 0.7 °C
[7]; read-out: dTm 6
  ΔTm at 10 µM: 1.1 °C
[8]; read-out: dTm 6
  ΔTm at 10 µM: 6.3 °C

## CNc1ncc2cc(-c3cc(F)ccc3F)c(=O)n(CCCCN)c2n1 [compound 5, 8-(4-Aminobutyl)-6-(2,5-difluorophenyl)-2-(methylamino)pyrido[2,3-d]pyrimidin-7(8H)-one]
[1]; read-out: dTm MR22 (5)
  ΔTm at 10 µM: 2.1 °C
[2]; read-out: dTm MR22 (5)
  ΔTm at 10 µM: -0.6 °C
[3]; read-out: dTm MR22 (5)
  ΔTm at 10 µM: 4.5 °C
[4]; read-out: dTm MR22 (5)
  ΔTm at 10 µM: 5.4 °C
[5]; read-out: dTm MR22 (5)
  ΔTm at 10 µM: -0.4 °C
[6]; read-out: dTm MR22 (5)
  ΔTm at 10 µM: 1.6 °C
[7]; read-out: dTm MR22 (5)
  ΔTm at 10 µM: 0.2 °C
[8]; read-out: dTm MR22 (5)
  ΔTm at 10 µM: 5.4 °C

## CNc1ncc2cc(-c3ccc(-c4cccc(C)n4)cc3Cl)c(=O)n(CC3OCC(N)CO3)c2n1 (stereo not drawn) [compound 2, G-5555]
[1]; 10 µM, binder
  dTm G-5555 (2): 2.5 °C
[2]; 10 µM, binder
  dTm G-5555 (2): -0.1 °C
[4]; 10 µM, binder
  dTm G-5555 (2): 6.1 °C
[5]; 10 µM, binder
  dTm G-5555 (2): 10.2 °C
[6]; 10 µM, binder
  dTm G-5555 (2): 3.5 °C
[7]; 10 µM, binder
  dTm G-5555 (2): 3.5 °C
[8]; 10 µM, binder
  dTm G-5555 (2): 0.0 °C

## CNc1ncc2cc(-c3ccccc3Cl)c(=O)n(CCCCN)c2n1 [compound 4, 8-(4-Aminobutyl)-6-(2-chlorophenyl)-2-(methylamino)pyrido[2,3-d]pyrimidin-7(8H)-one]
[1]; read-out: dTm MR21 (4)
  ΔTm at 10 µM: 3.1 °C
[2]; read-out: dTm MR21 (4)
  ΔTm at 10 µM: 0 °C
[3]; read-out: dTm MR21 (4)
  ΔTm at 10 µM: 3.6 °C
[4]; read-out: dTm MR21 (4)
  ΔTm at 10 µM: 6.6 °C
[5]; read-out: dTm MR21 (4)
  ΔTm at 10 µM: 5.4 °C
[6]; read-out: dTm MR21 (4)
  ΔTm at 10 µM: 0.5 °C
[7]; read-out: dTm MR21 (4)
  ΔTm at 10 µM: 2.8 °C
[8]; read-out: dTm MR21 (4)
  ΔTm at 10 µM: 5.8 °C

## CNc1ncc2cc(-c3cc(Br)ccc3Cl)c(=O)n(C[C@H]3OC[C@H](N)CO3)c2n1 [compound 7, 8-(((2r,5r)-5-Amino-1,3-dioxan-2-yl)methyl)-6-(5-bromo-2-chlorophenyl)-2-(methylamino)pyrido[2,3-d]pyrimidin-7(8H)-one]
[1]; read-out: dTm 7
  ΔTm at 10 µM: 0.7 °C
[2]; read-out: dTm 7
  ΔTm at 10 µM: 0.4 °C
[3]; read-out: dTm 7
  ΔTm at 10 µM: 3.1 °C
[4]; read-out: dTm 7
  ΔTm at 10 µM: 2.6 °C
[5]; read-out: dTm 7
  ΔTm at 10 µM: 2.1 °C
[6]; read-out: dTm 7
  ΔTm at 10 µM: -0.1 °C
[7]; read-out: dTm 7
  ΔTm at 10 µM: 0.5 °C
[8]; read-out: dTm 7
  ΔTm at 10 µM: 5.1 °C
